According to patent US20080241085A1, “COMPOSITIONS FOR USE IN DARKENING THE SKIN” (priority 2007, published 2008):

How the values were obtained:
Format in all cases: in vivo
[1] = test system: human skin; test: Visual evaluation of skin darkening after topical treatment of a human subject's arm; set-up: key to visual skin darkening, 2 WEEKS / visual skin darkening, 4 WEEKS / visual skin darkening, 8 WEEKS / visual skin darkening, 8 WKS + 1 WK / visual skin darkening, 8 WKS + 2 WKS / visual skin darkening, 8 WKS + 3 WKS: ++: Obvious visible tan-like color; +: Weak visible tan-like color; 0: No visible tan-like color; conditions: for visual skin darkening, 2 WEEKS: one volunteer, 2 weeks of treatment; for visual skin darkening, 8 WEEKS: 8 weeks of treatment; for induction of visible skin darkening (in words): 1% topical twice a day, six to eight weeks; for visual skin darkening, 8 WKS + 1 WK: 8 weeks topical treatment followed by 1 week without any treatment; for visual skin darkening, 8 WKS + 2 WKS: 8 weeks topical treatment followed by 2 weeks without any treatment; for visual skin darkening, 8 WKS + 3 WKS: 8 weeks topical treatment followed by 3 weeks without any treatment
Protocol: All the phospholipids were dissolved in an ethanol/propylene glycol vehicle (70/30, v/v) at the concentration of 1% of solid phospholipid powder. Preparations 1, 2 and 3 were tested for their ability to induce skin darkening in one human subject, with informed consent. One volunteer, Fitzpatrick skin type II, with no history of skin cancer, no skin disease or unusual skin reaction, and no topical treatments on the study sites (the upper and lower parts of the arm) within a period of 30 days before enrollment and during the treatment period, was treated with preparations 1-3. Different preparations were used in four different studies. Two studies used the upper part of the arm, and two other studies used the lower part of the arm, which were treated twice a day for six to eight weeks with 10 μl of test phospholipid solutions (1%) in ethanol: propylene glycol (70:30, v/v) vehicle, or with vehicle alone. No other products were used and no sun exposure occurred during the treatment period. Skin darkening was evaluated visually, and in some cases also by using a chromameter (ChromaMeter, Minolta, Osaka, Japan) and DRS (see Nguyen B. C., Br. J. Dermatol. 2003, 149(2):332-40). Measurements were taken at 4 and 8 weeks. The DRS instrument was assembled using a tungsten halogen light source (Model LS- 1, Ocean Optics, Dunedin, Fla., USA), Miniature Fiber Optic Spectrometer (Model USB2000, Ocean Optics, Dunedin, Fla., USA) and custom-designed bifurcated fiber optic probe (Multimode Fiber Optics Inc, East Hanover, N.J., USA). The scale used for reporting visual skin darkening is defined in the Table 1. The visual tan-like color was somewhat stronger on the upper arm, relative to lower arm, possibly because of slightly darker baseline color of the lower arm than the upper arm. The visual results are summarized in Table 2, including the fading time of the darker color, when treatment was terminated at 8 weeks and skin color was followed for additional three weeks.

[2] = test system: human skin; test: Melanin deposition by DRS after topical treatment of a human subject's arm; conditions: 4 weeks of treatment, 1% topical twice a day; vehicle 1.248
Protocol: (§1) All the phospholipids were dissolved in an ethanol/propylene glycol vehicle (70/30, v/v) at the concentration of 1% of solid phospholipid powder.
(§2) Preparations 1, 2 and 3 were tested for their ability to induce skin darkening in one human subject, with informed consent. One volunteer, Fitzpatrick skin type II, with no history of skin cancer, no skin disease or unusual skin reaction, and no topical treatments on the study sites (the upper and lower parts of the arm) within a period of 30 days before enrollment and during the treatment period, was treated with preparations 1-3. Different preparations were used in four different studies. Two studies used the upper part of the arm, and two other studies used the lower part of the arm, which were treated twice a day for six to eight weeks with 10 μl of test phospholipid solutions (1%) in ethanol: propylene glycol (70:30, v/v) vehicle, or with vehicle alone. No other products were used and no sun exposure occurred during the treatment period.
(§3) Skin darkening was evaluated visually, and in some cases also by using a chromameter (ChromaMeter, Minolta, Osaka, Japan) and DRS (see Nguyen B. C., Br. J. Dermatol. 2003, 149(2):332-40). Measurements were taken at 4 and 8 weeks. […]

[3] = test system: human skin; test: Skin colour L* by chromameter after topical treatment of a human subject's arm; conditions: 4 weeks of treatment, 1% topical twice a day; vehicle 67.28
Protocol: as §1, §2, §3

[4] = 1% in ethanol/propylene glycol (70/30), 10 μl twice a day, topical, arm
[5] = after termination of 8 weeks topical treatment

Substance | visual skin darkening, 2 WEEKS [1, 4] | visual skin darkening, 4 WEEKS ([1]; 1% in ethanol/propylene glycol (70/30), 10 μl twice a day, topical, arm, 4 weeks of treatment) | visual skin darkening, 8 WEEKS [1, 4] | induction of visible skin darkening (in words) [1] | visual skin darkening, 8 WKS + 1 WK [1] | visual skin darkening, 8 WKS + 2 WKS [1] | visual skin darkening, 8 WKS + 3 WKS [1] | Melanin (DRS, arbitrary units) [2] [arbitrary units] | L* (Chromameter) [3] | time at which darkening started to fade after termination of topical treatment [1, 5] [days] | time the darkening remained visible after the end of the topical treatment [1, 5] | change of visible skin darkening with routine daily activities (e.g., after water and soap washing) ([1]; during topical treatment)
lysophosphatidylcholine [Preparation 1] | + | ++ | ++ | induced visible skin darkening | ++ | + | 0 | 1.274 | 68.27 |  |  | 
lysophosphatidylcholine [LPC] |  |  |  |  |  |  |  |  |  | 14 to 20 | at least 14 days | did not change
Lysophosphatidylcholine [Preparation 2] | + |  | ++ | induced visible skin darkening | ++ | + | 0 | 1.304 | 67.69 |  |  | 
